Patent US20170029355A1, “LABILE ESTERS OF AGROCHEMICALS FOR CONTROLLED RELEASE AND REDUCTION OF OFF-SITE MOVEMENT” (Monsanto Technology LLC, priority 2011, published 2017)
Where two headings read alike, the source gives them in different places. One block for each compound: values may come before it.

What was measured:
[1] = test system: velvetleaf; test: Greenhouse post-emergent control of velvetleaf by emulsifiable concentrates (Example 37); assay type: in vivo; conditions: for pest or weed control at 140 g/ha / pest or weed control at 280 g/ha / pest or weed control at 420 g/ha / pest or weed control at 560 g/ha: Abutilon theophrasti, post-emergence, 504 h; for pest or weed control at 140 g/ha: read-out: % Control of velvetleaf, 140 g/ha; for pest or weed control at 280 g/ha: read-out: % Control of velvetleaf, 280 g/ha; for pest or weed control at 420 g/ha: read-out: % Control of velvetleaf, 420 g/ha; for pest or weed control at 560 g/ha: read-out: % Control of velvetleaf, 560 g/ha
Method: (§1) The efficacy of some photo-labile ester formulations from Example 28 for post-emergent control of velvetleaf was tested in the greenhouse. All formulations were tested at rates of 140, 280, 420, and 560 g dicamba equivalent per hectare rates and compared to the diglycolamine salt of dicamba (CLARITY®) at the same rates and untreated control plants. The velvetleaf plants were 10-15 cm in height at the time of spraying. Percent control was evaluated three weeks after treatment.
The methodology of Example 29 was used to evaluate the efficacy of several esters of dicamba which convert to dicamba by hydrolysis for post-emergent control of velvetleaf as emulsifiable concentrate formulations.

[2] = In vitro photo-release and hydrolytic release of dicamba in an aqueous medium (Example 36); assay type: physicochemical; conditions: 0.01 mM (0.005 mM for diesters); for Conversion to Dicamba, Dark, Day 0 / Conversion to Dicamba, Dark, Day 1 / Conversion to Dicamba, Dark, Day 2 / Conversion to Dicamba, Dark, Day 3 / Conversion to Dicamba, Dark, Day 4 / Conversion to Dicamba, Dark, Day 7 / Conversion to Dicamba, Dark, Day 14 / Conversion to Dicamba, Dark, Day 21 / Conversion to Dicamba, Dark, Day 28 / Conversion to dicamba, Dark, Day 10: amber (dark) bottle; for Conversion to Dicamba, Light, Day 0 / Conversion to Dicamba, Light, Day 1 / Conversion to Dicamba, Light, Day 2 / Conversion to Dicamba, Light, Day 3 / Conversion to Dicamba, Light, Day 4 / Conversion to Dicamba, Light, Day 7 / Conversion to Dicamba, Light, Day 14 / Conversion to Dicamba, Light, Day 21 / Conversion to Dicamba, Light, Day 28 / Conversion to dicamba, Light, Day 10: quartz tube
Method: This Example describes the determination of photo-lability and hydrolytic lability of dicamba esters in an aqueous medium. 1 mM solutions of the esters were prepared in acetonitrile (or […] solutions of dicamba diesters). The solutions were then diluted with deionized water to a concentration of 0.01 mM (or 0.005 mM for diesters). The solutions were then transferred to quartz tubes and amber bottles and held in a growth chamber by the procedure of Example 26. A 14-hour day was generally used at a constant temperature of 35° C. Hydrolytic activity was assessed by measuring the increase in dicamba concentration after day zero in the amber (dark) bottles. […] Photolysis manifested itself as increased conversion in the quartz tubes compared to the dark control.
This Example provides the results of an aqueous lability test following the protocol of Example 35 for several dicamba esters which convert to dicamba primarily by hydrolysis. As shown by the results in the table below, conversion of the dark controls generally equaled or exceeded conversion in the photolysis solutions.

[3] = In vitro dicamba photo-release from photo-labile dicamba esters, tetrahydrofuran solvent (Example 26); assay type: physicochemical; conditions: THF, 0.1 mM ester
Method: (§2) This Example describes in vitro testing of dicamba photo-release by homogeneous solutions of photo-labile dicamba esters. The esters were dissolved in tetrahydrofuran (THF). Ester concentration was 0.1 mM. 25 ml of the solution was transferred to 22 mm tubes fabricated from graded seal quartz tubing with a 19/22 tapered seal at the top, which was closed with a tapered glass plug and secured with a plastic ring clamp. The solution was entirely below the quartz-to-glass transition, ensuring that the entire volume was exposed to the full spectrum.
(§3) The sealed tubes were placed in a Growth Chamber where they were exposed to simulated sunlight for 14 hours per day at 35° C. Dicamba concentrations in the solution were measured during the course of the photolysis.
(§4) A sample of the initial solution was reserved in a glass vial away from the light source and analyzed at the conclusion of the study, providing a measurement of the amount of dicamba present without illumination of the photolysis solution (the “dark control”).

[4] = In vitro dicamba photo-release from photo-labile dicamba esters, acetonitrile/10% water solvent (Example 27); assay type: physicochemical; conditions: acetonitrile containing 10% water
Method: as §2, §3, §4
This Example is another photolysis of photo-labile dicamba esters, but using acetonitrile containing 10% water by weight as the solvent. The experimental protocol is otherwise the same as in Example 18.

[5] = test system: broadleaf weeds; test: Control of broadleaf weeds by ester concentrates (statements of the description); assay type: in vivo; conditions: emulsifiable and suspension concentrates; Sesbania macrocarpa, morning glory, velvetleaf, Palmer amaranth, fat hen, sicklepod
[6] = test system: velvetleaf; test: Greenhouse post-emergent control of velvetleaf by emulsifiable concentrates (Example 29); assay type: in vivo; conditions: three weeks after treatment
Method: as §1

Compound: CCOC(=O)CCn1nc(OC(=O)c2c(Cl)ccc(Cl)c2OC)ccc1=O [Ester 35a]
- pest or weed control at 140 g/ha [1]: 35.8%
- pest or weed control at 280 g/ha [1]: 60%
- pest or weed control at 420 g/ha [1]: 85%
- pest or weed control at 560 g/ha [1]: 87.5%
- Conversion to Dicamba, Dark, Day 0 [2]: 19%
- Conversion to Dicamba, Dark, Day 1 [2]: 66%
- Conversion to Dicamba, Dark, Day 2 [2]: 69%
- Conversion to Dicamba, Dark, Day 3 [2]: 68%
- Conversion to Dicamba, Dark, Day 4 [2]: 71%
- Conversion to Dicamba, Dark, Day 7 [2]: 74%
- Conversion to Dicamba, Dark, Day 14 [2]: 70%
- Conversion to Dicamba, Dark, Day 21 [2]: 70%
- Conversion to Dicamba, Dark, Day 28 [2]: 74%
- Conversion to Dicamba, Light, Day 0 [2]: 19%
- Conversion to Dicamba, Light, Day 1 [2]: 57%
- Conversion to Dicamba, Light, Day 2 [2]: 58%
- Conversion to Dicamba, Light, Day 3 [2]: 58%
- Conversion to Dicamba, Light, Day 4 [2]: 62%
- Conversion to Dicamba, Light, Day 7 [2]: 60%
- Conversion to Dicamba, Light, Day 14 [2]: 64%
- Conversion to Dicamba, Light, Day 21 [2]: 63%
- Conversion to Dicamba, Light, Day 28 [2]: 65%

- Conversion to Dicamba, Dark, Day 0 [2]: 16%
- Conversion to Dicamba, Dark, Day 1 [2]: 37%
- Conversion to Dicamba, Dark, Day 2 [2]: 43%
- Conversion to Dicamba, Dark, Day 3 [2]: 43%
- Conversion to Dicamba, Dark, Day 4 [2]: 44%
- Conversion to Dicamba, Dark, Day 7 [2]: 49%
- Conversion to dicamba, Dark, Day 10 [2]: 50%
- Conversion to Dicamba, Dark, Day 14 [2]: 51%
- Conversion to Dicamba, Dark, Day 21 [2]: 49%
- Conversion to Dicamba, Dark, Day 28 [2]: 50%
- Conversion to Dicamba, Light, Day 0 [2]: 16%
- Conversion to Dicamba, Light, Day 1 [2]: 45%
- Conversion to Dicamba, Light, Day 2 [2]: 48%
- Conversion to Dicamba, Light, Day 3 [2]: 46%
- Conversion to Dicamba, Light, Day 4 [2]: 45%
- Conversion to Dicamba, Light, Day 7 [2]: 46%
- Conversion to dicamba, Light, Day 10 [2]: 50%
- Conversion to Dicamba, Light, Day 14 [2]: 51%
- Conversion to Dicamba, Light, Day 21 [2]: 53%
- Conversion to Dicamba, Light, Day 28 [2]: 53%
Compound: C=C(C(=O)OCC)C(OC(=O)c1c(Cl)ccc(Cl)c1OC)c1ccccc1[N+](=O)[O-] (stereo not shown) [Ester 31a]

Compound: CCCCOc1ccc(C(=O)COC(=O)c2c(Cl)ccc(Cl)c2OC)cc1 [Ester 10, p-n-Butoxyphenacylmethyl Ester of Dicamba]
- Dark Control % dicamba ([3]; initial solution kept away from the light source, analyzed at conclusion of study): 8%
- Conversion to dicamba, 1 day ([3]; simulated sunlight 14 hours per day, 35° C., 1 day): 16%
- Conversion to dicamba, 2 days ([3]; simulated sunlight 14 hours per day, 35° C., 2 days): 15%
- Conversion to dicamba, 3 days ([3]; simulated sunlight 14 hours per day, 35° C., 3 days): 16%
- Conversion to dicamba, 5 days ([3]; simulated sunlight 14 hours per day, 35° C., 5 days): 19%
- Conversion to dicamba, 7 days ([3]; simulated sunlight 14 hours per day, 35° C., 7 days): 20%
- Conversion to dicamba, 9 days ([3]; simulated sunlight 14 hours per day, 35° C., 9 days): 29%
- Conversion to dicamba, 12 days ([3]; simulated sunlight 14 hours per day, 35° C., 12 days): 35%
- Conversion to dicamba, 15 days ([3]; simulated sunlight 14 hours per day, 35° C., 15 days): 35%
- Dark Control % dicamba ([4]; no illumination): 8%
- Conversion to dicamba, 1 day ([4]; simulated sunlight, 1 day): 17%
- Conversion to dicamba, 2 days ([4]; simulated sunlight, 2 days): 19%
- Conversion to dicamba, 3 days ([4]; simulated sunlight, 3 days): 20%
- Conversion to dicamba, 5 days ([4]; simulated sunlight, 5 days): 24%
- Conversion to dicamba, 7 days ([4]; simulated sunlight, 7 days): 28%
- Conversion to dicamba, 11 days ([4]; simulated sunlight, 11 days): 32%
- Conversion to dicamba, 13 days ([4]; simulated sunlight, 13 days): 31%
- Conversion to dicamba, 15 days ([4]; simulated sunlight, 15 days): 32%
- Conversion to dicamba, 19 days ([4]; simulated sunlight, 19 days): 33%
- control of a number of broadleaf weeds in field testing, in words [5]: proven effective
- % Control of velvetleaf, 140 g/ha ([6]; 140 g dicamba equivalent per hectare): 23%
- % Control of velvetleaf, 280 g/ha ([6]; 280 g dicamba equivalent per hectare): 33%
- % Control of velvetleaf, 420 g/ha ([6]; 420 g dicamba equivalent per hectare): 28%
- % Control of velvetleaf, 560 g/ha ([6]; 560 g dicamba equivalent per hectare): 33%

- Conversion to Dicamba, Dark, Day 0 [2]: 27%
- Conversion to Dicamba, Dark, Day 1 [2]: 81%
- Conversion to Dicamba, Dark, Day 2 [2]: 83%
- Conversion to Dicamba, Dark, Day 3 [2]: 83%
- Conversion to Dicamba, Dark, Day 4 [2]: 80%
- Conversion to Dicamba, Dark, Day 7 [2]: 84%
- Conversion to Dicamba, Dark, Day 14 [2]: 85%
- Conversion to Dicamba, Light, Day 0 [2]: 27%
- Conversion to Dicamba, Light, Day 1 [2]: 75%
- Conversion to Dicamba, Light, Day 2 [2]: 74%
- Conversion to Dicamba, Light, Day 3 [2]: 75%
- Conversion to Dicamba, Light, Day 4 [2]: 74%
- Conversion to Dicamba, Light, Day 7 [2]: 76%
- Conversion to Dicamba, Light, Day 14 [2]: 77%
Compound: COc1ccc(COC(=O)c2c(Cl)ccc(Cl)c2OC)cc1 [Ester 29a, 4-methoxybenzyl ester of dicamba]
- pest or weed control at 140 g/ha ([1]; greenhouse, 140 g/ha, Example 37): 30%
- pest or weed control at 280 g/ha ([1]; greenhouse, 280 g/ha, Example 37): 55%
- pest or weed control at 420 g/ha ([1]; greenhouse, 420 g/ha, Example 37): 74.2%
- pest or weed control at 560 g/ha ([1]; greenhouse, 560 g/ha, Example 37): 81.7%

Compound: COc1c(Cl)ccc(Cl)c1C(=O)Oc1ccc(=O)n(CCC=O)n1 [Ester 33a]
- pest or weed control at 140 g/ha [1]: 15.8%
- pest or weed control at 280 g/ha [1]: 27.5%
- pest or weed control at 420 g/ha [1]: 22.5%
- pest or weed control at 560 g/ha [1]: 30.8%
- post-emergent efficacy on velvetleaf compared with the salt, in words ([1]; greenhouse, emulsifiable concentrates): reduced post-emergent efficacy
- Conversion to Dicamba, Dark, Day 0 [2]: 13%
- Conversion to Dicamba, Dark, Day 1 [2]: 15%
- Conversion to Dicamba, Dark, Day 2 [2]: 18%
- Conversion to Dicamba, Dark, Day 3 [2]: 18%
- Conversion to Dicamba, Dark, Day 4 [2]: 22%
- Conversion to Dicamba, Dark, Day 7 [2]: 21%
- Conversion to dicamba, Dark, Day 10 [2]: 28%
- Conversion to Dicamba, Dark, Day 14 [2]: 37%
- Conversion to Dicamba, Dark, Day 21 [2]: 50%
- Conversion to Dicamba, Dark, Day 28 [2]: 55%
- Conversion to Dicamba, Light, Day 0 [2]: 13%
- Conversion to Dicamba, Light, Day 1 [2]: 18%
- Conversion to Dicamba, Light, Day 2 [2]: 20%
- Conversion to Dicamba, Light, Day 3 [2]: 19%
- Conversion to Dicamba, Light, Day 4 [2]: 22%
- Conversion to Dicamba, Light, Day 7 [2]: 23%
- Conversion to dicamba, Light, Day 10 [2]: 30%
- Conversion to Dicamba, Light, Day 14 [2]: 42%
- Conversion to Dicamba, Light, Day 21 [2]: 53%
- Conversion to Dicamba, Light, Day 28 [2]: 57%
